Assay results taken from US11510949B2, “Use of the treatment or improvement of sleep disorders by Lactobacillus brevis ProGA28 and/or its metabolites” (SYNGEN BIOTECH CO., LTD, priority 2019, dated 2022).

Tested on: SHR rats
Test: Sleep quality and quantity assessment in SHR rats after tube feeding (EEG/EMG sleep staging)
Format: in vivo
[1] = pure substance administered, FIG. 5

Procedure: The dosage of the test products used in the following examples is based on the daily human consumption of 8.3 mg/kg, and then according to the body surface area model coefficient of 6.2 to calculate the standard feeding dosage for rats being 52 mg/kg which is set as 1.0× dose given in the following examples.
The “sleep stage” called in the following examples includes the following three stages: awake (AW); quiet sleep (QS) which is equivalent to human non-rapid eye movement sleep (NREM) and paradoxical sleep (PS) which is equivalent to human rapid eye movement sleep (REM).
Frequency domain analysis of brain waves and myoelectric waves: each 16 seconds (1024 points) of brain wave signal acquisition is called a time window (or epoch), and is compared with 8 seconds before the next time window (50%) overlap for analysis. The fast Fourier transform is used to estimate the power spectral density and evaluate the activity of brain waves in different frequency bands. […]
Each test product was dissolved in drinking water and administered by tube feeding, the administration time was 1 hour before the light, and the physiological information of each group of rats was recorded at the beginning of the light, as a basis for sleep assessment.
In addition, pure gamma-aminobutyric acid was also administered to the SHR rats, and as described above, the physiological information of SHR rats was detected and recorded as a basis for sleep assessment.
The quality and quantity of sleep in the 24 hours after each test product was fed which was used as the range of sleep assessment:
The quantity of sleep: including the total time of sleep and wakefulness, the number of falling asleep and the average time of each sleep stage (duration) etc., and evaluate the quantity of sleep for each sleep stage; and the sleep of the group fed water is defined as 100%, used for comparing with the other groups fed test products to show the difference in each sleep stage.

For `NCCCC(=O)O` [pure y-aminobutyric acid, γ-aminobutyric acid], the “quality and quantity of sleep” value (overall comparison of the figures, dose not specified) was “not helpful for the improvement”, the “sleep quality of rats” value [1] was “not helpful to increase the sleep quality” and the sleep time [1] was “can not increase sleep time”.
